Data set [1] relates to aorta. Nature of the data set: In vivo rabbit aorta MR imaging. Set-up: species or system New Zealand White male rabbits. To be noted: atherosclerotic rabbit, 0.1 mmol/kg via marginal ear vein, MR at 4.7 T, shortly after injection. The procedure:
A series of pre-injection images were acquired. The rabbit was then injected with test compound (i.e., Example 31) at 0.1 mmol/kg via the marginal ear vein and images acquired at specified time intervals. All images were acquired at 4.7 T using an 8.5 cm field of view, 256×256 matrix using a black blood, flow-suppressed spin-echo method.

The subject of data set [2] is Aorta bearing atherosclerotic plaque. The data set is described as follows: Ex-vivo blood vessel binding assay. Set-up: species or system New Zealand white rabbits. The conditions noted are these: 153Gd-labeled compound 0.135 μCi in PBS, 2 h at 37° C., plaque-bearing rabbit aorta sections; percentage of initial activity. The procedure: Aorta bearing atherosclerotic plaque was obtained from New Zealand white rabbits that were balloon stripped along the abdominal aorta and placed on a high fat diet (0.5% cholesterol) for 16-22 weeks. Vascular injury was produced with a 4-F Fogarty catheter along the abdominal aorta and right iliofemoral artery. This procedure generates an accelerated complex lesion development with a lipid rich core covered by a fibrous cap in rabbits. Harvested aorta sections (0.5 cm) were incubated with 0.135 μCi of ^153Gd-labeled compound diluted in phosphate buffered saline (450 μL) for 2 h at 37° C. The supernatant was removed and analyzed by HPLC to assay compound stability. The tissue section was then washed with phosphate buffered saline (3×10 mL), then resuspended (10 mL) and incubated at 37° C. an additional 1 h. The supernatant was then removed, the washing process repeated and the tissue finally counted on a gamma counter. The amount of compound bound to the tissue was determined as a percentage of the initial activity according to the following formula: […]

Data set [3] relates to aorta. The conditions noted are these: 60 min post injection; for aorta uptake (% ID/g): ApoE mice on high-fat diet 35-42 weeks, 0.3-0.4 mCi/kg bolus via tail vein; for aorta:blood / aorta:heart: ApoE mice, uptake ratio. The procedure: The apolipoprotein E (ApoE) knockout mouse is a model of hypercholesterolemia that develops atherosclerotic lesions in the brachiocephalic artery, the aortic arch and the abdominal aorta. Mice were fed a high-fat diet to accelerate plaque formation and compounds were tested in the mice between 35-42 weeks on diet. Test compounds were administered at 0.3-0.4 mCi/kg to anesthetized mice in a single, bolus injection via the tail vein. Blood samples were collected via the tail between 0-30 min post injection for pharmacokinetic analysis and mice were euthanized by CO2 at 60 min for tissue harvesting. The aorta was first flushed with saline through the left ventricle exiting via the femoral vein then removed from the heart to the renal bifurcation; additional biological samples were also collected (blood, muscle, liver, kidney, bile, urine, heart, femur, reproductive organ, lung, spleen and innominate artery). All samples were weighed and assayed for radioactivity; uptake is expressed as a percentage of injected dose per gram of tissue (% ID/g).

Data set [4] has as its system aorta. To be noted: 60 min post injection; for aorta (% ID/g ± SD): 0.01-0.05 mCi/kg bolus via marginal ear vein. The procedure: Atherosclerosis was induced in New Zealand White male rabbits (3 kg) with aortic balloon endothelial injury (vide supra) followed by feeding a 0.5% cholesterol diet for 22 weeks. Test compounds were administered at 0.01-0.05 mCi/kg to anesthetized rabbits in a single, bolus injection via the marginal ear vein. Blood samples were collected from the central ear artery at 0, 2, 5, 7, 10, 15, 30 and 60 min post injection. Rabbits were euthanized at 60 min post injection for tissue harvesting (blood, muscle, bile, urine, kidney, liver, spleen, heart, lung, colon, small intestine, stomach, testes and in some cases, sternum, ligament and right ear). Abdominal aorta (upper, middle, and lower) and left and right femoral arteries were also collected. All samples were weighed and assayed for radioactivity; uptake is expressed as percentage of injected dose per gram of tissue (% ID/g).

Setting [5] is: control rabbit (non-plaque bearing).

The results in this text go back to patent US9732047B2, “N-alkoxyamide conjugates as imaging agents” (Lantheus Medical Imaging, Inc., priority 2008, dated 2017).

Structures are written as SMILES. Like-named read-outs stand apart in the source and are kept apart here.

For the molecule `CC(C)C[C@@H](N)C(=O)NOCc1ccc(CNC(=O)CN2CCN(CC(=O)[O-])CCN(CC(=O)[O-])CCN(CC(=O)[O-])CC2)cc1.[Gd+3]` [Example 31], the “relative image intensity in the aorta” value with aorta [1] is “marked increase of relative image intensity in the aorta”.
Regarding `N[C@H](CCc1ccccc1)C(=O)NOCc1ccc(CNC(=O)CN2CCN(CC(=O)[O-])CCN(CC(=O)[O-])CCN(CC(=O)[O-])CC2)cc1.[153Gd+3]` [Example 38], the “% bound” value in data set [2] was 19.1%. Also, in the data set on aorta [3], the “aorta uptake (% ID/g)” value is recorded as 11.6 ± 0.8 % ID/g, the “aorta:blood” value was determined as 5.5 and the “aorta:heart” value was found to be 20.5. Besides, in the data set on aorta [4] (setting [5]), the “aorta (% ID/g ± SD)” value is 0.196 ± 0.023 % ID/g. In the data set with aorta [4] (control rabbit), the “aorta:blood” value was 5.1 and the “aorta:heart” value was determined as 11.0. Also, in the data set on aorta [4] (plaque rabbit), the “aorta (% ID/g ± SD)” value was 0.103 ± 0.002 % ID/g, the “aorta:blood” value came to 2.4 and the “aorta:heart” value is recorded as 5.1.
`N[C@H](Cc1ccc2ccccc2c1)C(=O)NOCc1ccc(CNC(=O)CN2CCN(CC(=O)[O-])CCN(CC(=O)[O-])CCN(CC(=O)[O-])CC2)cc1.[153Gd+3]` [Example 60]: in data set [2], the “% bound” value came out at 30.9%. Moreover, the “aorta uptake (% ID/g)” value with aorta [3] is listed as 18.4 ± 2.4 % ID/g. Moreover, the “aorta:blood” value in the data set with aorta [3] is 9.8; in the data set on aorta [4] (control rabbit), 3.8; in the data set on aorta [4] (plaque rabbit), 2.4. The “aorta:heart” value in the data set with aorta [3] amounted to 25.2; with aorta [4] (control rabbit) it was 6.4; in the data set with aorta [4] (plaque rabbit), 4.0. The figures for the “aorta (% ID/g ± SD)” value in the data set on aorta [4] (setting [5]) and in the data set with aorta [4] (plaque rabbit) were 0.187 ± 0.022 % ID/g and 0.108 ± 0.012 % ID/g, respectively.
Regarding `N[C@H](Cc1cc2ccccc2[nH]1)C(=O)NOCc1ccc(CNC(=O)CN2CCN(CC(=O)[O-])CCN(CC(=O)[O-])CCN(CC(=O)[O-])CC2)cc1.[153Gd+3]` [Example 62], in data set [2], the “% bound” value came out at 17.1%. Besides, in the data set with aorta [3], the “aorta uptake (% ID/g)” value worked out at 11.8 ± 1.4 % ID/g, the “aorta:blood” value is reported as 5.7 and the “aorta:heart” value is reported as 22.2. The “aorta (% ID/g ± SD)” value with aorta [4] (setting [5]) turned out to be 0.159 % ID/g. For the same molecule, in the data set on aorta [4] (control rabbit), the “aorta:blood” value is listed as 3.2 and the “aorta:heart” value was 6.4.
